# Reference: PubChem BioAssay (NCI)
#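 Dose response: 5 concentrations. Exposure: 48 h. Format: 96-well plates. Endpoint: linear interpolation; highest concentration if not reached. The concentration for full growth arrest is given as TGI.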
# What was measured:
# Assay in all cases: growth of human tumour cells (NCI), 48 h
# UO-31 renal = system: UO-31 renal
# UACC-257 melanoma = system: UACC-257 melanoma
# OVCAR-3 ovarian = system: OVCAR-3 ovarian
# CAKI-1 renal = system: CAKI-1 renal
# HT29 colon = system: HT29 colon
# SF-295 CNS = system: SF-295 CNS
# HCC-2998 colon = system: HCC-2998 colon
# OVCAR-5 ovarian = system: OVCAR-5 ovarian
# HS 578T breast = system: HS 578T breast
# HCT-116 colon = system: HCT-116 colon
# EKVX NSCLC = system: EKVX NSCLC
# A549 NSCLC = system: A549 NSCLC
# MCF7 breast = system: MCF7 breast
# BT-549 breast = system: BT-549 breast
# SNB-19 CNS = system: SNB-19 CNS
# OVCAR-4 ovarian = system: OVCAR-4 ovarian
# MALME-3M melanoma = system: MALME-3M melanoma
# NCI/ADR-RES ovarian = system: NCI/ADR-RES ovarian
# NCI-H23 lung = system: NCI-H23 lung
# HOP-92 NSCLC = system: HOP-92 NSCLC
Compound,TGI (UO-31 renal) [µM],TGI (UACC-257 melanoma) [µM],TGI (OVCAR-3 ovarian) [µM],TGI (CAKI-1 renal) [µM],TGI (HT29 colon) [µM],TGI (SF-295 CNS) [µM],TGI (HCC-2998 colon) [µM],TGI (OVCAR-5 ovarian) [µM],TGI (HS 578T breast) [µM],TGI (HCT-116 colon) [µM],TGI (EKVX NSCLC) [µM],TGI (A549 NSCLC) [µM],TGI (MCF7 breast) [µM],TGI (BT-549 breast) [µM],TGI (SNB-19 CNS) [µM],TGI (OVCAR-4 ovarian) [µM],TGI (MALME-3M melanoma) [µM],TGI (NCI/ADR-RES ovarian) [µM],TGI (NCI-H23 lung) [µM],TGI (HOP-92 NSCLC) [µM]
Cc1ccc(OCC2OC(n3cnc4nc(Nc5ccc(Cl)c(Cl)c5)nc(Cl)c43)CC2Oc2ccc(C)cc2)cc1 (centres undefined),> 100,> 100,> 100,> 100,> 100,> 100,> 100,> 100,> 100,> 100,> 100,> 100,> 100,> 100,> 100,> 100,> 100,> 100,> 100,
O=[N+]([O-])c1ccc(N/N=C2/CC3=C2CCCCCCCCCC3)c([N+](=O)[O-])c1,> 100,> 100,> 100,> 100,> 100,> 100,> 100,> 100,> 100,> 100,> 100,> 100,> 100,> 100,> 100,> 100,> 100,> 100,> 100,
CSc1nn(C)cc2ncnc1-2,> 100,> 100,> 100,> 100,> 100,> 100,,> 100,> 100,> 100,> 100,> 100,> 100,> 100,> 100,,,> 100,> 100,
O=[N+]([O-])c1cccc(-c2ncc3c(n2)-c2ccccc2C3)c1,> 100,> 100,,> 100,> 100,> 100,,> 100,> 100,> 100,> 100,> 100,> 100,> 100,72.4,> 100,> 100,> 100,> 100,> 100
COc1cc(C2OC(N)=C(C#N)C3=C2C(C)CCC3)cc(OC)c1OC (centres undefined),> 100,> 100,> 100,> 100,> 100,> 100,,> 100,> 100,> 100,> 100,,> 100,> 100,> 100,,> 100,> 100,> 100,
Cc1cc(C)nc(NS(=O)(=O)c2ccc(Nc3c4ccccc4nc4c(C(=O)NC(CO)(CO)CO)cccc34)cc2)n1,> 100,> 100,> 100,> 100,70.8,> 100,36.1,88.4,> 100,,> 100,73.2,> 100,44.2,> 100,> 100,,> 100,> 100,> 100
CC(=O)NCCCCN(CCCNC(C)=O)C(=O)CNS(=O)(=O)c1cccc2c(N(C)C)cccc12,> 100,> 100,> 100,,> 100,> 100,> 100,> 100,> 100,> 100,> 100,> 100,> 100,> 100,> 100,> 100,> 100,,> 100,> 100
